Laboratory results reported in PubChem BioAssay (NCI).
Values joined by “and” are separate entries in the source; they are usually repeats but may differ in a detail not shown here. Identical values can stand only once.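 How tested: cells in 96-well plates exposed to compound for 48 hours at five concentrations. GI50: concentration for 50% inhibition of growth. TGI is the concentration that stops growth completely.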

Assays:
Experiment in all cases: growth of human tumour cells (NCI), 48 h
OVCAR-3 ovarian = system: OVCAR-3 ovarian
ACHN renal = system: ACHN renal
BT-549 breast = system: BT-549 breast
IGROV1 ovarian = system: IGROV1 ovarian
CCRF-CEM leukemia = system: CCRF-CEM leukemia
TK-10 renal = system: TK-10 renal
HL-60(TB) leukemia = system: HL-60(TB) leukemia
OVCAR-4 ovarian = system: OVCAR-4 ovarian
MDA-MB-435 = system: MDA-MB-435
U251 CNS = system: U251 CNS

Row | SMILES | GI50 (OVCAR-3 ovarian) | TGI (OVCAR-3 ovarian) | GI50 (ACHN renal) | TGI (ACHN renal) | GI50 (BT-549 breast) | TGI (BT-549 breast) | GI50 (IGROV1 ovarian) | TGI (IGROV1 ovarian) | GI50 (CCRF-CEM leukemia) | TGI (CCRF-CEM leukemia) | GI50 (TK-10 renal) | TGI (TK-10 renal) | TGI (HL-60(TB) leukemia) | GI50 (OVCAR-4 ovarian) | TGI (OVCAR-4 ovarian) | GI50 (MDA-MB-435) | TGI (MDA-MB-435) | GI50 (U251 CNS) | TGI (U251 CNS) | GI50 (HL-60(TB) leukemia)
1 | COc1ccc2nc3cc([N+](=O)[O-])ccc3c(NNc3ccccc3)c2c1 | 10.2 µM | 21.9 µM and > 100 µM | 14.4 µM | 33.1 µM and > 83.3 µM | 15.9 µM | 35.7 µM and > 100 µM | 15.4 µM | 68.6 µM and 27.9 µM | 10.9 µM | > 100 µM | 12.1 µM | 30 µM and > 100 µM | 59.8 µM and > 84 µM | 11.6 µM | 36.1 µM and > 100 µM | 13.4 µM | 35.3 µM and > 100 µM | 8.08 µM | 22 µM and > 100 µM | 
2 | CCN(CC)CCC(CNc1ccnc2cc(Cl)ccc12)c1ccccc1 (centres undefined) | 14.9 µM | > 100 µM | 3.91 µM | 14.7 µM | 10.8 µM | 24.6 µM | 7.98 µM | 55.7 µM | 4.02 µM | 36.5 µM | 2.11 µM | 6.27 µM | 29.2 µM | 5.89 µM | 35.7 µM | 2.01 µM | 5.02 µM | 3.93 µM | 14 µM | 4.22 µM
3 | O=CNc1ccc(S(=O)(=O)c2ccc(NC=O)cc2)cc1 |  | > 100 µM |  | > 100 µM |  | > 100 µM |  | > 100 µM |  | > 100 µM |  | > 100 µM | > 100 µM |  | > 100 µM |  | > 100 µM |  | > 100 µM | 
4 | COc1cc(/C=C/C(=O)N2CCC=CC2=O)cc(OC)c1OC | 3.34 µM | 11.9 µM | 1.73 µM | 3.28 µM | 2.45 µM | 7.84 µM | 2.21 µM | 11.2 µM | 2.12 µM | 6.29 µM | 2.99 µM | 6.76 µM | 5.28 µM | 3.11 µM | 17.4 µM | 2.21 µM | 6.05 µM | 3.19 µM | 11 µM | 1.91 µM
